# Test results taken from ChEMBL document CHEMBL1127340, “A new approach to the design of sigma-2-selective ligands: synthesis and evaluation of N-[2-(3,4-dichlorophenyl)ethyl]-N-methyl-2-(1- pyrrolidinyl)ethylamine-related polyamines at sigma-1 and sigma-2 receptor subtypes” (J Med Chem, 1994).
# Molecular target: Sigma 2 receptor
# Experiment: Binding affinity towards sigma 2 receptor was determined in rat liver membrane using [3H]DTG as radioligand in presence of dextrallorphan
# Type: cell membranes
row,Compound,Ki
1,Clc1ccc(CCNCCNCCN2CCCC2)cc1Cl,111 nM
2,CN(CCCCN1CCCC1)CCCN(C)CCc1ccc(Cl)c(Cl)c1,152 nM
3,NCCNCCNCCc1ccc(Cl)c(Cl)c1,537 nM
4,CN(CCCN(C)Cc1ccc(Cl)c(Cl)c1)CCN1CCCC1,52.6 nM
5,CN(CCc1ccc(Cl)c(Cl)c1)CCN(C)CCN(C)CCN(C)CCN1CCCC1,162 nM
6,CN(CCCCN(C)CCc1ccc(Cl)c(Cl)c1)CCCCN1CCCC1,115 nM
7,CN(CCN(C)Cc1ccc(Cl)c(Cl)c1)CCN1CCCC1,12.1 nM
8,CN(CCc1ccc(Cl)c(Cl)c1)CCN(C)CCN(C)CCN1CCCC1,53.6 nM
9,CN(CCCN1CCCC1)CCN(C)Cc1ccc(Cl)c(Cl)c1,183 nM
10,CN(CCc1ccc(Cl)c(Cl)c1)CCN1CCCC1,8.1 nM
11,NCCN(CCc1ccc(Cl)c(Cl)c1)CCN1CCCC1,135 nM
12,CN(CCCN(C)CCc1ccc(Cl)c(Cl)c1)CCCN1CCCC1,14.9 nM
13,CN(CCc1ccc(Cl)c(Cl)c1)CCN(C)CCN1CCCC1,14.4 nM
14,NCCNCCc1ccc(Cl)c(Cl)c1,2360 nM
15,Clc1ccc(CCN2CCCC2)cc1Cl,7700 nM
